Data: patent publication US7141560B2, “Alanine 2,6-dialkoxyphenyl ester derivatives as hypnotics” (Akzo Nobel N.V., priority 2001, dated 2006)

Test system: mice
Assay: Hypnotic activity: loss of righting reflex after intravenous injection in mice
Format: in vivo
Settings: intravenous injection over 10 seconds, dose causing loss of righting reflex for minimum 30 seconds in 50% of treated mice; for ED50: Mus musculus, read-out: HD50 (hypnotic dose50)
Method: The hypnotic potency of the alanine 2,6-dialkoxyphenyl ester derivatives of the invention was determined upon their intravenous administration in mice. The dose required to cause a loss of righting reflex for a minimum period of 30 seconds in 50% of treated mice after intravenous injection over 10 seconds was determined. This dose is termed the HD50 (hypnotic dose50) and is expressed in μmol.kg^−1. These in vivo experiments were carried out as described in detail by Anderson et al., J. Med. Chem. 1997, 40, 1668–1681.

| SMILES | HD50 (hypnotic dose50) | ED50 |
| --- | --- | --- |
| CCOCCC(C(=O)Oc1c(OC)cccc1OC)N1CCCOCC1 (stereo not drawn) [Example 10p, 4-Ethoxy-2-[4-(hexahydro-1-oxazepinyl)]butyric acid, 2,6-dimethoxyphenyl ester] | 23 µmol/kg |  |
| CCOCCC(C(=O)Oc1c(OC)cccc1OC)N1CCCCCC1 (stereo not drawn) [Example 10q, 4-Ethoxy-2-[1-hexahydroazepinyl]butyric acid, 2,6-dimethoxyphenyl ester] |  | 25 µmol/kg |
| CCOCCC(C(=O)Oc1c(OC)cccc1OC)N(CCOC)CCOC (stereo not drawn) [Example 10r, 2-[N-(Bis(2-methoxyethyl)amino)]-4-ethoxybutyric acid, 2,6-dimethoxyphenyl ester] | 27 µmol/kg |  |
| CCOCCC(C(=O)Oc1c(OC)cccc1OC)N(CCOCC)CCOCC (stereo not drawn) [Example 10s, 2-[N-(Bis(2-ethoxyethyl)amino)]-4-ethoxybutyric acid, 2,6-dimethoxyphenyl ester] | 47 µmol/kg |  |
| CCOCCC(C(=O)Oc1c(OC)cc(C)cc1OC)N1CCOCC1 (stereo not drawn) [Example 10t, 4-Ethoxy-2-[4-morpholinyl]butyric acid, 2,6-dimethoxy-4-methylphenyl ester] |  | 36 µmol/kg |
| CCOCCC(C(=O)Oc1c(OC)cc(C)cc1OC)N1CCCCCC1 (stereo not drawn) [Example 10u, 4-Ethoxy-2-[1-hexahydroazepinyl]butyric acid, 2,6-dimethoxy-4-methylphenyl ester] |  | 17 µmol/kg |
| CCOCCC(C(=O)Oc1c(OC)cc(C)cc1OC)N1CCCOCC1 (stereo not drawn) [Example 10w, 4-Ethoxy-2-[4-(hexahydro-1-oxazepinyl)]butyric acid, 2,6-dimethoxy-4-methylphenyl ester] | 26 µmol/kg |  |
| COc1cccc(OC)c1OC(=O)C(CN1CCSCC1)N1CCSCC1 (stereo not drawn) [Example 18a, 2,3-Di-(N-thiomorpholinyl)propanoic acid, 2,6-dimethoxyphenyl ester] |  | 15 µmol/kg |
| COc1cccc(OC)c1OC(=O)C(CN1CCOC(C)(C)C1)N1CCOC(C)(C)C1 (stereo not drawn) [Example 18b, 2,3-Di-[4-(2,2-dimethylmorpholinyl)]propanoic acid, 2,6-dimethoxyphenyl ester] | 31 µmol/kg |  |
| COc1cccc(OC)c1OC(=O)C(CN1CCOCC1)N1CCOCC1 (stereo not drawn) [Example 18c, 2,3-Di-(4-morpholinyl)propanoic acid, 2,6-dimethoxyphenyl ester] |  | 31 µmol/kg |
| COc1cccc(OC)c1OC(=O)C(CN1CCOCC1)N1CCSCC1 (stereo not drawn) [Example 19a, 3-(4-Morpholinyl)-2-(N-thiomorpholinyl)propanoic acid, 2,6-dimethoxyphenyl ester] |  | 17 µmol/kg |
| COc1cccc(OC)c1OC(=O)C(CN1CCOCC1)N1CCc2ccccc2C1 (stereo not drawn) [Example 19b, 3-(4-Morpholinyl)-2-(1,2,3,4-tetrahydroisoquinoline)propanoic acid, 2,6-dimethoxyphenyl ester] | 29 µmol/kg |  |
| COc1cccc(OC)c1OC(=O)C(CN1CCOCC1)N1CCSC(C)(C)C1 (stereo not drawn) [Example 19c, 2-[N-(2,2-Dimethylthiomorpholinyl)]-3-(4-morpholinyl)propanoic acid, 2,6-dimethoxyphenyl ester] | 28 µmol/kg |  |
| COc1cccc(OC)c1OC(=O)C(CN1CCOCC1)N1CCO[C@H](C)C1 (stereo partly drawn) [Example 19d, 2-[(R)-4-(2-Methylmorpholinyl)]-3-(4-morpholinyl)propanoic acid, 2,6-dimethoxyphenyl ester] | 27 µmol/kg |  |
| CC[C@@H]1CN(C(CN2CCOCC2)C(=O)Oc2c(OC)cccc2OC)CCO1 (stereo partly drawn) [Example 19e, 2-[(R)-4-(2-Ethylmorpholinyl)]-3-(4-morpholinyl)propanoic acid, 2,6-dimethoxyphenyl ester] | 27 µmol/kg |  |
| CCC1(C)CN(C(CN2CCOCC2)C(=O)Oc2c(OC)cccc2OC)CCO1 (stereo not drawn) [Example 19f, 2-[4-(2-Ethyl-2-methylmorpholinyl)]-3-(4-morpholinyl)propanoic acid, 2,6-dimethoxyphenyl ester] | 21 µmol/kg |  |
| COc1cccc(OC)c1OC(=O)C(CN1CCOCC1)N1CCCCC1 (stereo not drawn) [Example 19g, 3-(4-Morpholinyl)-2-(1-piperidinyl)propanoic acid, 2,6-dimethoxyphenyl ester] |  | 15 µmol/kg |
| COc1cccc(OC)c1OC(=O)C(CN1CCOCC1)N1CCOC[C@H]1C(C)C (stereo partly drawn) [Example 19h] | 21 µmol/kg |  |
| COc1cccc(OC)c1OC(=O)C(CN1CCSCC1)N1CCOCC1 (stereo not drawn) [Example 19i, 2-(4-Morpholinyl)-3-(N-thiomorpholinyl)propanoic acid, 2,6-dimethoxyphenyl ester] |  | 19 µmol/kg |
| COc1cccc(OC)c1OC(=O)C(CN1CCc2ccccc2C1)N1CCOCC1 (stereo not drawn) [Example 19j, 2-(4-Morpholinyl)-3-(1,2,3,4-tetrahydroisoquinoline)propanoic acid, 2,6-dimethoxyphenyl ester] | 21 µmol/kg |  |
| COc1cccc(OC)c1OC(=O)C(CN1CC=CCC1)N1CCSCC1 (stereo not drawn) [Example 19k, 3-(1,2,3,6-Tetrahydropyridinyl)-2-(N-thiomorpholinyl)propanoic acid, 2,6-dimethoxyphenyl ester] | 15 µmol/kg |  |
| CCOc1cccc(OCC)c1OC(=O)C(CN1CCOCC1)N1CCOCC1 (stereo not drawn) [Example 20b, Propanoic acid, 2,3-di(4-morpholinyl), 2,6-diethoxyphenyl ester] | 24 µmol/kg |  |
| COc1cccc(OC)c1OC(=O)C(CCN1CCOCC1)N1CCOCC1 (stereo not drawn) [Example 21a, 2,4-Di-(4-morpholinyl)butanoic acid, 2,6-dimethoxyphenyl ester] |  | 50 µmol/kg |
| COc1cccc(OC)c1OC(=O)C(CCN1CCOC(C)(C)C1)N1CCOC(C)(C)C1 (stereo not drawn) [Example 21b] | 25 µmol/kg |  |
| COCCN(CCOC)C(CC(=O)OC)C(=O)Oc1c(OC)cccc1OC (stereo not drawn) [Example 24a, Butanedioic, 2-[N-bis(2-methoxyethyl)amino]-, 1-(2,6-dimethoxyphenyl)ester, 4-methyl ester] | 48 µmol/kg |  |
| COCCN(CCOC)C(CC(=O)OC)C(=O)Oc1c(OC)cc(C)cc1OC (stereo not drawn) [Example 24b, Butanedioic, 2-[N-bis(2-methoxyethyl)amino]-, 1-(2,6-dimethoxy-4-methylphenyl)ester, 4-methyl ester] | 48 µmol/kg |  |
| COC(=O)CC(C(=O)Oc1c(OC)cc(C)cc1OC)N1CCOCC1 (stereo not drawn) [Example 26b, Butanedioic, 2-(4-morpholinyl)-, 1-(2,6-dimethoxy-4-methylphenyl)ester, 4-methyl ester] | 46 µmol/kg |  |
| COC(=O)CC(C(=O)Oc1c(OC)cccc1OC)N1CCCCC1 (stereo not drawn) [Example 28a, Butanedioic, 2-(1-piperidinyl)-, 1-(2,6-dimethoxyphenyl)ester, 4-methyl ester] | 26 µmol/kg |  |
| COC(=O)CC(C(=O)Oc1c(OC)cc(C)cc1OC)N1CCCCC1 (stereo not drawn) [Example 28b, Butanedioic, 2-(1-piperidinyl)-, 1-(2,6-dimethoxy-4-methylphenyl)ester, 4-methyl ester] | 48 µmol/kg |  |
| COC(=O)CC(C(=O)Oc1c(OC)cccc1OC)N1CCCCCC1 (stereo not drawn) [Example 30a, Butanedioic, 2-(1-hexahydroazepinyl)-, 1-(2,6-dimethoxyphenyl)ester, 4-methyl ester] | 23 µmol/kg |  |
